Test results reported in publication PMC11831560, “Development of the Pyrido[2,3-d]pyrimidin-7(8H)-one Scaffold toward Potent and Selective NUAK1 Inhibitors” (ACS Medicinal Chemistry Letters, 2025).

Legend:
Test in all cases: Kinase panel radiometric filter binding (33P-ATP)
Type in all cases: biochemical
Parameters in all cases: dose or concentration left out as unconfirmed
CK1γ2 = CK1γ2 (Homo sapiens, UniProt P78368)
Procedure, shortened: (§1)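 140-kinase general panel; radiometric filter binding, 33P-ATP; test compound 1 µM; % activity remaining ± s.d.; pIC50 determined only if <20% activity.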

ZAP70 = ZAP70 (Homo sapiens, UniProt P43403)
Sequence of ZAP70 (P43403 whole entry): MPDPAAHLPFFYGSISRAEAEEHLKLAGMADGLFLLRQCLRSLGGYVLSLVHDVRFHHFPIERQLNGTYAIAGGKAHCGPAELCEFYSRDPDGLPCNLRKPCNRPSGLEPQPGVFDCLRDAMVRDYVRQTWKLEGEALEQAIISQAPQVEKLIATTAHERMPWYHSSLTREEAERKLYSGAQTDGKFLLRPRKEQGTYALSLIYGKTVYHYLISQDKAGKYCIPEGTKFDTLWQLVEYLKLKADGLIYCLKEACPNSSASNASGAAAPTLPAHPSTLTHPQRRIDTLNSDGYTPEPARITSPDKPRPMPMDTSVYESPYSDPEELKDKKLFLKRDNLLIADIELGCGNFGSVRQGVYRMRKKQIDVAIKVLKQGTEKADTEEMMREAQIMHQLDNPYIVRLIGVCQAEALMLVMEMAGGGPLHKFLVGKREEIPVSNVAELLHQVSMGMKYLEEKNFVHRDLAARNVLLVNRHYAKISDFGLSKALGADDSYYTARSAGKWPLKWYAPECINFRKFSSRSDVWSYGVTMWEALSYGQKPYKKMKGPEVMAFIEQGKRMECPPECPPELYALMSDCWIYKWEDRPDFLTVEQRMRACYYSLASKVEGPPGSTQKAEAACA
Procedure, shortened: as §1

NEK6 = NEK6 (Homo sapiens, UniProt Q9HC98)
Sequence of NEK6 (Q9HC98 whole entry): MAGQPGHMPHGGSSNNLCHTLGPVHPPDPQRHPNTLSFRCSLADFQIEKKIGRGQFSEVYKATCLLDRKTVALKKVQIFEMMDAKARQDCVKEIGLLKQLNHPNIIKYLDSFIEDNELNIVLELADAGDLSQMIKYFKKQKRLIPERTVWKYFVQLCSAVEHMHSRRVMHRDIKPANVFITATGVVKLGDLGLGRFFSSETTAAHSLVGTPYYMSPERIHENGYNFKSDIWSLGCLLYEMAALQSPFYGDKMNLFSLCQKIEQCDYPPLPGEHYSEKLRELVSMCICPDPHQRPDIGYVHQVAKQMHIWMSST
Procedure, shortened: as §1

MST4 = MST4 (Homo sapiens, UniProt Q9P289)
Procedure, shortened: as §1

MINK1 = MINK1 (Homo sapiens, UniProt Q8N4C8)
Procedure, shortened: as §1

EPH-A2 = EPH-A2 (Homo sapiens, UniProt P29317)
Procedure, shortened: as §1

ABL = ABL (Homo sapiens, UniProt P00519)
Procedure, shortened: as §1

MKK6 = MKK6 (Homo sapiens, UniProt P52564)
Procedure, shortened: as §1

TIE2 = TIE2 (Homo sapiens, UniProt Q02763)
Sequence of TIE2 (Q02763 23-1124): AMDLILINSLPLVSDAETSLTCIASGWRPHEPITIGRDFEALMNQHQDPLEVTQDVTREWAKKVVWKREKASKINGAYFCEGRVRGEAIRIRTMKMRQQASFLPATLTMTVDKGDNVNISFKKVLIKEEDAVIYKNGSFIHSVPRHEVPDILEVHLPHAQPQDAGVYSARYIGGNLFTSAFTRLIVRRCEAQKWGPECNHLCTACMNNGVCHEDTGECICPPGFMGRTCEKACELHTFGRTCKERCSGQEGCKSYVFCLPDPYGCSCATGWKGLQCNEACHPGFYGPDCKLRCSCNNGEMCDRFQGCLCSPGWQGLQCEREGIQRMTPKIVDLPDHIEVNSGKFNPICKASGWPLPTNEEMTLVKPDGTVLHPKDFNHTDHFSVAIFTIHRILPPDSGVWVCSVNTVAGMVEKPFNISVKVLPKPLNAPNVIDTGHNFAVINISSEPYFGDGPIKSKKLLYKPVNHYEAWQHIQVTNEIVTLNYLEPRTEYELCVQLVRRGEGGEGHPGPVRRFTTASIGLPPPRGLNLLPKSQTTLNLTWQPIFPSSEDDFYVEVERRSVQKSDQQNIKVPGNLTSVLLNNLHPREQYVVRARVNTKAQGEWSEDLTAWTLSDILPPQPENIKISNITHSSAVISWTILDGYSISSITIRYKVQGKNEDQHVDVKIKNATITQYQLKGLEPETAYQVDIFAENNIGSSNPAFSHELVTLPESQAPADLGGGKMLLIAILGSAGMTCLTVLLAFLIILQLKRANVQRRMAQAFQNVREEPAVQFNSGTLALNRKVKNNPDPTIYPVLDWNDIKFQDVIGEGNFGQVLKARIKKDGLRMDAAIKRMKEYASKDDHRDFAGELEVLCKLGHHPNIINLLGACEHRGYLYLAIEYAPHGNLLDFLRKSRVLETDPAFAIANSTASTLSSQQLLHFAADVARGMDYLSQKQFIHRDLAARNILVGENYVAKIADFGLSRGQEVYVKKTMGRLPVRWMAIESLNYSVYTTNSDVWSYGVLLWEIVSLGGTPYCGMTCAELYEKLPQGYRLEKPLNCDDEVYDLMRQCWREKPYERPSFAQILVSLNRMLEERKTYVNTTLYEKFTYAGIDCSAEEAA
Procedure, shortened: as §1

S6K1 = S6K1 (Homo sapiens, UniProt P23443)
Procedure, shortened: as §1

TTK = TTK (Homo sapiens, UniProt P33981)
Sequence of TTK (P33981 whole entry): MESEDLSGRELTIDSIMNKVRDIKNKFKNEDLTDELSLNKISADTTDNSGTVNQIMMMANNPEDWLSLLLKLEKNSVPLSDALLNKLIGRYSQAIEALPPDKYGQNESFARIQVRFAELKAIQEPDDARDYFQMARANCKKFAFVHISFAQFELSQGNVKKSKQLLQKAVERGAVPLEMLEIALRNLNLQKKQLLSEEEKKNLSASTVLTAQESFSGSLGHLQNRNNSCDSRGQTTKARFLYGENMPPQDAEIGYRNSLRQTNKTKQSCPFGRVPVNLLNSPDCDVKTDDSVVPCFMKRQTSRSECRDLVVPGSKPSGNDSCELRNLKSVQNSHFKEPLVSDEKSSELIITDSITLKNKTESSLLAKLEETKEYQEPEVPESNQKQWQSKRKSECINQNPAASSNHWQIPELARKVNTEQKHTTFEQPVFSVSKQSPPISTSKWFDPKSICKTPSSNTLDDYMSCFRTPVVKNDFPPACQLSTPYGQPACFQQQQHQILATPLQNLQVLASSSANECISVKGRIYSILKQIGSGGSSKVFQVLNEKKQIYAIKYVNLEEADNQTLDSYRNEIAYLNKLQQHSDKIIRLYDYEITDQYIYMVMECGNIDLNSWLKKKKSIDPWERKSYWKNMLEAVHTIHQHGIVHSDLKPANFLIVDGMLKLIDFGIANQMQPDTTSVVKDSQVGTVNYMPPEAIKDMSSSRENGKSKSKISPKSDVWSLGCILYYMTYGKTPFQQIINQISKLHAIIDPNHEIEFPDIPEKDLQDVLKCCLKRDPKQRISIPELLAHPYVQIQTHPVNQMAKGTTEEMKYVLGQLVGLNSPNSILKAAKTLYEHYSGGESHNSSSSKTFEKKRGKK
Procedure, shortened: as §1

BRSK2 = BRSK2 (Homo sapiens, UniProt Q8IWQ3)
Procedure, shortened: as §1

PRK2 = PRK2 (Homo sapiens, UniProt Q16513)
Procedure, shortened: as §1

JNK2 = JNK2 (Homo sapiens, UniProt P45984)
Sequence of JNK2 (P45984 whole entry): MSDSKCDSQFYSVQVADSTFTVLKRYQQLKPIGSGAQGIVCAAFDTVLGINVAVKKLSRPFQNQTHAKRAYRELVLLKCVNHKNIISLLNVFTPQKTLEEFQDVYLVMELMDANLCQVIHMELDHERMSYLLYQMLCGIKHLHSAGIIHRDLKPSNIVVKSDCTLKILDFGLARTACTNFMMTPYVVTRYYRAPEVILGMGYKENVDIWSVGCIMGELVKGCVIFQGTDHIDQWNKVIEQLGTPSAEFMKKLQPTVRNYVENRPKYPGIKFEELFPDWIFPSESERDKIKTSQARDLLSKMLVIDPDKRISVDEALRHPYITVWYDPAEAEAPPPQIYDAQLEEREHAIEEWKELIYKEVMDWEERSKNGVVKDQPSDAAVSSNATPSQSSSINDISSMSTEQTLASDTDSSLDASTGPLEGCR
Procedure, shortened: as §1

BRK = BRK (Homo sapiens, UniProt Q13882)
Procedure, shortened: as §1

MKK1 = MKK1 (Homo sapiens, UniProt Q02750)
Procedure, shortened: as §1

NEK2a = NEK2a (Homo sapiens, UniProt P51955)
Procedure, shortened: as §1

CHK1 = CHK1 (Homo sapiens, UniProt O14757)
Procedure, shortened: as §1

PKCz = PKCz (Homo sapiens, UniProt Q05513)
Procedure, shortened: as §1

EPH-B4 = EPH-B4 (Homo sapiens, UniProt P54760)
Procedure, shortened: as §1

PKBb = PKBb (Homo sapiens, UniProt P31751)
Procedure, shortened: as §1

EF2K = EF2K (Homo sapiens, UniProt O00418)
Procedure, shortened: as §1

MAP4K3 = MAP4K3 (Homo sapiens, UniProt Q8IVH8)
Procedure, shortened: as §1

JNK3 = JNK3 (Homo sapiens, UniProt P53779)
Procedure, shortened: as §1

MAPKAP-K3 = MAPKAP-K3 (Homo sapiens, UniProt Q16644)
Procedure, shortened: as §1

CHK2 = CHK2 (Homo sapiens, UniProt O96017)
Sequence of CHK2 (O96017 whole entry): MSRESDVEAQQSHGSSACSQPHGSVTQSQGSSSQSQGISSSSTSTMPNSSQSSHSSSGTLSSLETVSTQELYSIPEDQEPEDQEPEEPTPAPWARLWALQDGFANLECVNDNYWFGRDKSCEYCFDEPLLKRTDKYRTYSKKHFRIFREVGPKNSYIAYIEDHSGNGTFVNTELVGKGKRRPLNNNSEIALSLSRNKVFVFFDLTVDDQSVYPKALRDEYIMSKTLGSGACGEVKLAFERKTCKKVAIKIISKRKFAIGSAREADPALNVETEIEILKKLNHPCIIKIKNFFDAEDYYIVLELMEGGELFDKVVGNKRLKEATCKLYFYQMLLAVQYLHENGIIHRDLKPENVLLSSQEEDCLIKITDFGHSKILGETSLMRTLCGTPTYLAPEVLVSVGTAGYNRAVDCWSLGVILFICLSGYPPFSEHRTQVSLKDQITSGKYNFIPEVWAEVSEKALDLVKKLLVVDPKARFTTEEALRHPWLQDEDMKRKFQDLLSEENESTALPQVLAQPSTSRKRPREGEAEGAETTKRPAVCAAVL
Procedure, shortened: as §1

DYRK3 = DYRK3 (Homo sapiens, UniProt O43781)
Procedure, shortened: as §1

TGFBR1 = TGFBR1 (Homo sapiens, UniProt P36897)
Procedure, shortened: as §1

PINK = test system: PINK
Procedure, shortened: as §1

SmMLCK = SmMLCK (Homo sapiens, UniProt Q15746)
Procedure, shortened: as §1

MSK1 = MSK1 (Homo sapiens, UniProt O75582)
Procedure, shortened: as §1

ASK1 = ASK1 (Homo sapiens, UniProt Q99683)
Procedure, shortened: as §1

RSK2 = RSK2 (Homo sapiens, UniProt P51812)
Sequence of RSK2 (P51812 whole entry): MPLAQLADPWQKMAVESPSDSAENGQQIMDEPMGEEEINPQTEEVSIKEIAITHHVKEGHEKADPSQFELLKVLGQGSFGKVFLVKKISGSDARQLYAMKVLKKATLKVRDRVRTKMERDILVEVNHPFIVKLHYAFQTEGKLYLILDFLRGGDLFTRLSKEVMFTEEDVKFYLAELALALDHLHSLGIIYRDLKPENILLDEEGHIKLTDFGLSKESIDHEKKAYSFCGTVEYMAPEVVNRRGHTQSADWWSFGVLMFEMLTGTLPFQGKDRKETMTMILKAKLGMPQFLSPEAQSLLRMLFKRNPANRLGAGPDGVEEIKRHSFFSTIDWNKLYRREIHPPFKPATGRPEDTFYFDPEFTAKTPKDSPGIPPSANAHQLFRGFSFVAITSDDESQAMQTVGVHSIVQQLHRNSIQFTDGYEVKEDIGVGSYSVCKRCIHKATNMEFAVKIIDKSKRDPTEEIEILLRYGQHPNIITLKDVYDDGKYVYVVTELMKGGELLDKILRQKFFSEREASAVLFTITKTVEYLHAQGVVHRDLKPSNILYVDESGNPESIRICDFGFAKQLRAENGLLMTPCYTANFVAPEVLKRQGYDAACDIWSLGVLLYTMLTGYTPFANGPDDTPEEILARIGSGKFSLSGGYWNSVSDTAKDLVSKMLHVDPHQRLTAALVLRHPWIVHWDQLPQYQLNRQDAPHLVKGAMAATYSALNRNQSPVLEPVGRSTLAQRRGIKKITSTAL
Procedure, shortened: as §1

CK1δ = CK1δ (Homo sapiens, UniProt P48730)
Sequence of CK1δ (P48730 whole entry): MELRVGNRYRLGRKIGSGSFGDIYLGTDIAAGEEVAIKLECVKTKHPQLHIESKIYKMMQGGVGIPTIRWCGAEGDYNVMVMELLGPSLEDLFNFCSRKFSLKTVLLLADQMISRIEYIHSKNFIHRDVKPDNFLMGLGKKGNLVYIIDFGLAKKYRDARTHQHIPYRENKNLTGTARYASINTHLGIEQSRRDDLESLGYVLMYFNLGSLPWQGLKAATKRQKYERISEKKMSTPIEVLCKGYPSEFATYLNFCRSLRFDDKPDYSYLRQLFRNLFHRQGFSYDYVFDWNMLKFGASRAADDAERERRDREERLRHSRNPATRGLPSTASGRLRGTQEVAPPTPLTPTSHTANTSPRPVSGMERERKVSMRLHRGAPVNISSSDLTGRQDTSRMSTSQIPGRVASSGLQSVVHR
Procedure, shortened: as §1

EIF2AK3 = EIF2AK3 (Homo sapiens, UniProt Q9NZJ5)
Procedure, shortened: as §1

PKA = PKA (Homo sapiens, UniProt P17612)
Procedure, shortened: as §1

CN1C2CC1CN(c1ccc(Nc3ncc4ccn(CC5CCOCC5)c4n3)cc1)C2 [Compound 24]
% activity remaining (CK1γ2): 107% | % activity remaining (ZAP70): 95% | % activity remaining (NEK6): 98% | % activity remaining (MST4): 92% | % activity remaining (MINK1): 79% | % activity remaining (EPH-A2): 76% | % activity remaining (ABL): 56% | % activity remaining (MKK6): 88% | % activity remaining (TIE2): 62% | % activity remaining (S6K1): 78% | % activity remaining (TTK): 99% | % activity remaining (BRSK2): 75% | % activity remaining (PRK2): 71% | % activity remaining (JNK2): 88% | % activity remaining (BRK): 58% | % activity remaining (MKK1): 71% | % activity remaining (NEK2a): 77% | % activity remaining (CHK1): 75% | % activity remaining (PKCz): 118% | % activity remaining (EPH-B4): 86% | % activity remaining (PKBb): 93% | % activity remaining (EF2K): 102% | % activity remaining (MAP4K3): 62% | % activity remaining (JNK3): 107% | % activity remaining (MAPKAP-K3): 109% | % activity remaining (CHK2): 98% | % activity remaining (DYRK3): 65% | % activity remaining (TGFBR1): 75% | % activity remaining (PINK): 99% | % activity remaining (SmMLCK): 102% | % activity remaining (MSK1): 84% | % activity remaining (ASK1): 99% | % activity remaining (RSK2): 73% | % activity remaining (CK1δ): 93% | % activity remaining (EIF2AK3): 86% | % activity remaining (PKA): 90%

Cc1cc(=O)n(C2CCCC2)c2nc(Nc3ccc(N4CC5CC(C4)N5C)cc3)ncc12 [Compound 9]
% activity remaining (CK1γ2): 34% | % activity remaining (ZAP70): 94% | % activity remaining (NEK6): 105% | % activity remaining (MST4): 61% | % activity remaining (MINK1): 30% | % activity remaining (EPH-A2): 77% | % activity remaining (ABL): 41% | % activity remaining (MKK6): 84% | % activity remaining (TIE2): 115% | % activity remaining (S6K1): 85% | % activity remaining (TTK): 54% | % activity remaining (BRSK2): 90% | % activity remaining (PRK2): 75% | % activity remaining (JNK2): 35% | % activity remaining (BRK): 67% | % activity remaining (MKK1): 108% | % activity remaining (NEK2a): 36% | % activity remaining (CHK1): 57% | % activity remaining (PKCz): 110% | % activity remaining (EPH-B4): 61% | % activity remaining (PKBb): 99% | % activity remaining (EF2K): 72% | % activity remaining (MAP4K3): 29% | % activity remaining (JNK3): 30% | % activity remaining (MAPKAP-K3): 84% | % activity remaining (CHK2): 72% | % activity remaining (DYRK3): 74% | % activity remaining (TGFBR1): 92% | % activity remaining (PINK): 96% | % activity remaining (SmMLCK): 61% | % activity remaining (MSK1): 61% | % activity remaining (ASK1): 97% | % activity remaining (RSK2): 49% | % activity remaining (CK1δ): 66% | % activity remaining (EIF2AK3): 41% | % activity remaining (PKA): 84%
